In EP4722207A1, “OXOISOINDOLINYL-SUBSTITUTED TETRAHYDROPYRIMIDINEDIONE DERIVATIVE AND USE THEREOF” (Gluetacs Therapeutics (Shanghai) Co., Ltd., priority 2023, dated 2024):

Experiments:
Type in all cases: cell-based
Details in all cases: 24 hours of compound treatment, 50 nM and 500 nM
IKZF3 = target: T1, IKZF3 (Homo sapiens, UniProt Q96SW2+Q9UKT9); experiment: Western-blot assay, substrate protein degradation in hPBMCs: IKZF3
T1 construct: effects of the compounds of the present disclosure on the expression of target proteins in cells; endogenous in cells; host or cells: human PBMCs (hPBMCs)
T1 sequence (Q9UKT9 whole entry): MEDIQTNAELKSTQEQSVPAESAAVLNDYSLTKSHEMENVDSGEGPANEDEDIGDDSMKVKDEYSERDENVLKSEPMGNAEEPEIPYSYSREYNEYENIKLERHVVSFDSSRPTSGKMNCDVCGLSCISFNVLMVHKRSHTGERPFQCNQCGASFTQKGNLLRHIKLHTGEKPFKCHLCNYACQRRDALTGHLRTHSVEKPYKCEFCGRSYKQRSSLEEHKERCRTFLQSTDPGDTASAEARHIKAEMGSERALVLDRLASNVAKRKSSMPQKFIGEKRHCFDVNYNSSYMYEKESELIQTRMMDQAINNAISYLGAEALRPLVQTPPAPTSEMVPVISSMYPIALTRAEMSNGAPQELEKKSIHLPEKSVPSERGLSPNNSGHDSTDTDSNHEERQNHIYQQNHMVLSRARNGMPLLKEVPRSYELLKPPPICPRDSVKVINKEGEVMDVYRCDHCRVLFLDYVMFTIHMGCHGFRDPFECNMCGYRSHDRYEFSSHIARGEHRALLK
T1 sequence (Q96SW2 whole entry): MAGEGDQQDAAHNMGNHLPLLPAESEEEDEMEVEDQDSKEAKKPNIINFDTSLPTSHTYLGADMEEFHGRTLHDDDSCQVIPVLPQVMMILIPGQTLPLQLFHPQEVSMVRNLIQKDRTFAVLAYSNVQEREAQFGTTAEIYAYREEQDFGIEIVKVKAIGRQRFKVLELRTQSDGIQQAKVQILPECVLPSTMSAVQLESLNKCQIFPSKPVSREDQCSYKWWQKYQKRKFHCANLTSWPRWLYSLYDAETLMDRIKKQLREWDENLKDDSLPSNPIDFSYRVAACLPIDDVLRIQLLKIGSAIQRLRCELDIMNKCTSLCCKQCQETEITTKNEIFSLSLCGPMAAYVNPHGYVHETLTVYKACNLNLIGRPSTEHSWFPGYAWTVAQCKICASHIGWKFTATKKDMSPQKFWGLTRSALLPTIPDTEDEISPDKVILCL
T1 sequence (Q16531 whole entry partner): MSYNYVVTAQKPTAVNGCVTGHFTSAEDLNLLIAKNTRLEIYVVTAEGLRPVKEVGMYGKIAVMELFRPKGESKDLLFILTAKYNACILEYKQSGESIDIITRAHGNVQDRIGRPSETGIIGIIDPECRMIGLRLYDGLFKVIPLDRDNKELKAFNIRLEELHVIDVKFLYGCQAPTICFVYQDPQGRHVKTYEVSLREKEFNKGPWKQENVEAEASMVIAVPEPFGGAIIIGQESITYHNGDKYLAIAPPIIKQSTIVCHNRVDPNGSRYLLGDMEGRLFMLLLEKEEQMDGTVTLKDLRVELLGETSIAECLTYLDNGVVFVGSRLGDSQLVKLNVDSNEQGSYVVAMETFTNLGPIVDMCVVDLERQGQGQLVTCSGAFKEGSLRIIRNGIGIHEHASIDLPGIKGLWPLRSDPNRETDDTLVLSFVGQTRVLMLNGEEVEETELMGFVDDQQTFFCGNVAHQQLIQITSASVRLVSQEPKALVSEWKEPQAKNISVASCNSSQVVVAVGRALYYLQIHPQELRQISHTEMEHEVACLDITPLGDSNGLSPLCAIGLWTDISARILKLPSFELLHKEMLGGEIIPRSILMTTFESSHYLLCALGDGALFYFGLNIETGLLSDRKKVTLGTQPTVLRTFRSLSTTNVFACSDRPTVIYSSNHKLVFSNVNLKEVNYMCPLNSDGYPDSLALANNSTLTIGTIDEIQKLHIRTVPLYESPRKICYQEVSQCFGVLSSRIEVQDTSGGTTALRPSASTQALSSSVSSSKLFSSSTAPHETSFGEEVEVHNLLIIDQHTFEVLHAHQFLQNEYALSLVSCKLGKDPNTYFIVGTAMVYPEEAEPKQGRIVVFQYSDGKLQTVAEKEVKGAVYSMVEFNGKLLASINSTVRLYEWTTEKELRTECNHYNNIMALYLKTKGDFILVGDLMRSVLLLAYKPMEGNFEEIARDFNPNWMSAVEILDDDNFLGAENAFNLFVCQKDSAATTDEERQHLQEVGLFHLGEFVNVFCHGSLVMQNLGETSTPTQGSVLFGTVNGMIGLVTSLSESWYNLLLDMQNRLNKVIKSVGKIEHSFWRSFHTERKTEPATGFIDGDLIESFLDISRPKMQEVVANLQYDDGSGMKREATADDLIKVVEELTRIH

GSPT1 = target: T2, GSPT1 (Homo sapiens, UniProt P15170+Q96SW2); experiment: Western-blot assay, substrate protein degradation in hPBMCs: GSPT1
T2 construct: effects of the compounds of the present disclosure on the expression of target proteins in cells; endogenous in cells; host or cells: human PBMCs (hPBMCs)

IKZF2 = target: T3, IKZF2 (Homo sapiens, UniProt Q96SW2+Q9UKS7); experiment: Western-blot assay, substrate protein degradation in hPBMCs: IKZF2
T3 construct: effects of the compounds of the present disclosure on the expression of target proteins in cells; endogenous in cells; host or cells: human PBMCs (hPBMCs)
T3 sequence (Q9UKS7 whole entry): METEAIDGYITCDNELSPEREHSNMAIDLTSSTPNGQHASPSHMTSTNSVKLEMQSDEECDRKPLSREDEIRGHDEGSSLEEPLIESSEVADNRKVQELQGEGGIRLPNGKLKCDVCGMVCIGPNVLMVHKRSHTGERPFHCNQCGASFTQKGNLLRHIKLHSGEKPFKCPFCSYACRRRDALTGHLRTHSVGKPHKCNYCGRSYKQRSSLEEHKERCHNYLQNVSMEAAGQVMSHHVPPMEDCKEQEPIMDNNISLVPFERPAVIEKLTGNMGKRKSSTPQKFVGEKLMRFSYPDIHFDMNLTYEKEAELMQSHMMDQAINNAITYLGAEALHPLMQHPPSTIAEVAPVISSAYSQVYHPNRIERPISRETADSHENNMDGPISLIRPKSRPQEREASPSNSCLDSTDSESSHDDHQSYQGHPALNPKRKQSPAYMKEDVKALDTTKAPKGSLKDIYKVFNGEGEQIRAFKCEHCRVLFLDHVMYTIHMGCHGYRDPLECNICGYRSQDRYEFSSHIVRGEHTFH
T3 sequence (Q96SW2 whole entry): as the sequence (Q96SW2 whole entry) above
T3 sequence (Q16531 whole entry partner): as the sequence (Q16531 whole entry partner) above

IKZF1 = target: T4, IKZF1 (Homo sapiens, UniProt Q13422+Q96SW2); experiment: Western-blot assay, substrate protein degradation in hPBMCs: IKZF1
T4 construct: effects of the compounds of the present disclosure on the expression of target proteins in cells; endogenous in cells; host or cells: human PBMCs (hPBMCs)
T4 sequence (Q13422 whole entry): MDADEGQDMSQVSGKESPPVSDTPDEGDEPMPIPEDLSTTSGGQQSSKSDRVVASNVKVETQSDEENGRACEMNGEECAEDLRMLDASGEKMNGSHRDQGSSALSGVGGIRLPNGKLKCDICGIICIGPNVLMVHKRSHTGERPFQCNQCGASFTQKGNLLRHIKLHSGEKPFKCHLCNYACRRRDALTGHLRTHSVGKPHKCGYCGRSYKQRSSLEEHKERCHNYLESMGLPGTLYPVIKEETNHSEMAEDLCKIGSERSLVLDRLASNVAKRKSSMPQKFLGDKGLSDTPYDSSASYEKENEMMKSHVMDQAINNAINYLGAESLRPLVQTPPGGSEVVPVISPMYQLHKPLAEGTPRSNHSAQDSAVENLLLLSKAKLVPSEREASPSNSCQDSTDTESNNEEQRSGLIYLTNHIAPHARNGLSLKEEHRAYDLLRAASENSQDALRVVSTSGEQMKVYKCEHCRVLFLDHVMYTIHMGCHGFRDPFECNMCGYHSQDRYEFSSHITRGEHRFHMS
T4 sequence (Q96SW2 whole entry): as the sequence (Q96SW2 whole entry) above
T4 sequence (Q16531 whole entry partner): as the sequence (Q16531 whole entry partner) above

WEE1 = target: T5, WEE1 (Homo sapiens, UniProt P30291+Q96SW2); experiment: Western-blot assay, substrate protein degradation in hPBMCs: WEE1
T5 construct: effects of the compounds of the present disclosure on the expression of target proteins in cells; endogenous in cells; host or cells: human PBMCs (hPBMCs)
T5 sequence (P30291 whole entry): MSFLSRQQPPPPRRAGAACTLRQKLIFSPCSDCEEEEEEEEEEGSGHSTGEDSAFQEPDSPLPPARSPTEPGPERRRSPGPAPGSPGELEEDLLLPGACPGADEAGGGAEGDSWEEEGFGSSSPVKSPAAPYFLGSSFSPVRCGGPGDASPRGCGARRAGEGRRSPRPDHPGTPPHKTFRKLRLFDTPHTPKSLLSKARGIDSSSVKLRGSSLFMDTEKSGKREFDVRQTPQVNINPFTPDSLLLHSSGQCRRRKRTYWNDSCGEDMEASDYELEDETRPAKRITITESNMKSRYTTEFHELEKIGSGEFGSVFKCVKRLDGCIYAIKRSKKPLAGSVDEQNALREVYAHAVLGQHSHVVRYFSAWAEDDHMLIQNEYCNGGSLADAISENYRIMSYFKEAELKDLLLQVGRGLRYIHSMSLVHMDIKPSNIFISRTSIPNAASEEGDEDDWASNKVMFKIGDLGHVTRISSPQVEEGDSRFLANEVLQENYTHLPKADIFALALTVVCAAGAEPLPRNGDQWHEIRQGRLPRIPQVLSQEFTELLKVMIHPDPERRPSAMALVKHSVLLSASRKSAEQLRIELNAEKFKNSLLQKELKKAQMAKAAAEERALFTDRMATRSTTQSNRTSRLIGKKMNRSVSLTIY
T5 sequence (Q96SW2 whole entry): as the sequence (Q96SW2 whole entry) above
T5 sequence (Q16531 whole entry partner): as the sequence (Q16531 whole entry partner) above

CK1α = target: T6, CK1α (Homo sapiens, UniProt P48729+Q96SW2); experiment: Western-blot assay, substrate protein degradation in hPBMCs: CK1α
T6 construct: effects of the compounds of the present disclosure on the expression of target proteins in cells; endogenous in cells; host or cells: human PBMCs (hPBMCs)
T6 sequence (P48729 whole entry): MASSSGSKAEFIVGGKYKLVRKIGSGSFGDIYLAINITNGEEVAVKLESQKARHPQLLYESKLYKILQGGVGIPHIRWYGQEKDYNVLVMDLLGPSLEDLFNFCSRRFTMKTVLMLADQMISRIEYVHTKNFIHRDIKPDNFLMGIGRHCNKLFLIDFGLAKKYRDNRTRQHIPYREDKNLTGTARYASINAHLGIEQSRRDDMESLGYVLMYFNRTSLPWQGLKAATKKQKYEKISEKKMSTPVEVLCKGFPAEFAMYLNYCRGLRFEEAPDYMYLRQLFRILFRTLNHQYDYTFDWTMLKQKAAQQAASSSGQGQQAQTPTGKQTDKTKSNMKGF
T6 sequence (Q96SW2 whole entry): as the sequence (Q96SW2 whole entry) above
T6 sequence (Q16531 whole entry partner): as the sequence (Q16531 whole entry partner) above

SMILES | substrate protein remaining % IKZF3 (IKZF3) | substrate protein remaining % GSPT1 (GSPT1) | substrate protein remaining % IKZF2 (IKZF2) | substrate protein remaining % IKZF1 (IKZF1) | substrate protein remaining % WEE1 (WEE1) | substrate protein remaining % CK1α (CK1α)
CC1(C)CC(c2ccc(Cl)cc2)=C(CN2CCN(Cc3ccc4c(c3)CN(N3CCC(=O)NC3=O)C4=O)CC2)CO1 [GT-07332, 1-(5-((4-((4-(4-chlorophenyl)-6,6-dimethyl-5,6-dihydro-2H-pyran-3-yl)methyl)piperazin-1-yl)methyl)-1-oxoisoindolin-2-yl)dihydropyrimidine-2,4(1H,3H)-dione] | A (0% ≤ substrate protein remaining % ≤ 80%) | A (0% ≤ substrate protein remaining % ≤ 80%) | B (80%< substrate protein remaining %≤ 100%) | A (0% ≤ substrate protein remaining % ≤ 80%) | A (0% ≤ substrate protein remaining % ≤ 80%) | B (80%< substrate protein remaining %≤ 100%)
CC1(C)CCC(CN2CC3CCC(C2)N3Cc2ccc3c(c2)C(=O)N(N2CCC(=O)NC2=O)C3=O)=C(c2ccc(Cl)cc2)C1 [GT-07333, 5-((3-((4'-chloro-5,5-dimethyl-3,4,5,6-tetrahydro-[1,1'-biphenyl]-2-yl)methyl)-3,8-diazabicyclo[3.2.1]octan-8-yl)methyl)-2-(2,4-dioxotetrahydropyrimidin-1(2H)-yl)isoindoline-1,3-dione] | B (80%< substrate protein remaining %≤ 100%) | A (0% ≤ substrate protein remaining % ≤ 80%) | B (80%< substrate protein remaining %≤ 100%) | B (80%< substrate protein remaining %≤ 100%) | B (80%< substrate protein remaining %≤ 100%) | B (80%< substrate protein remaining %≤ 100%)
CC1(C)CCC(CN2CC3CC2CN3Cc2ccc3c(c2)C(=O)N(N2CCC(=O)NC2=O)C3=O)=C(c2ccc(Cl)cc2)C1 (stereo not drawn) [GT-07334, 5-((5-((4'-chloro-5,5-dimethyl-3,4,5,6-tetrahydro-[1,1'-biphenyl]-2-yl)methyl)-2,5-diazabicyclo[2.2.1]heptan-2-yl)methyl)-2-(2,4-dioxotetrahydropyrimidin-1(2H)-yl)isoindoline-1,3-dione] | B (80%< substrate protein remaining %≤ 100%) | B (80%< substrate protein remaining %≤ 100%) | B (80%< substrate protein remaining %≤ 100%) | B (80%< substrate protein remaining %≤ 100%) | A (0% ≤ substrate protein remaining % ≤ 80%) | A (0% ≤ substrate protein remaining % ≤ 80%)
Cc1cscc1C1CCN(Cc2ccc3c(c2)CN(N2CCC(=O)NC2=O)C3=O)CC1 [GT-07372, 1-(5-((4-(4-methylthiophen-3-yl)piperidin-1-yl)methyl)-1-oxoisoindolin-2-yl)dihydropyrimidine-2,4(1H,3H)-dione] | A (0% ≤ substrate protein remaining % ≤ 80%) | A (0% ≤ substrate protein remaining % ≤ 80%) | B (80%< substrate protein remaining %≤ 100%) | B (80%< substrate protein remaining %≤ 100%) | B (80%< substrate protein remaining %≤ 100%) | B (80%< substrate protein remaining %≤ 100%)
Cc1cc(C2CCN(Cc3ccc4c(c3)CN(N3CCC(=O)NC3=O)C4=O)CC2)cs1 [GT-07373, 1-(5-((4-(5-methylthiophen-3-yl)piperidin-1-yl)methyl)-1-oxoisoindolin-2-yl)dihydropyrimidine-2,4(1H,3H)-dione] | A (0% ≤ substrate protein remaining % ≤ 80%) | A (0% ≤ substrate protein remaining % ≤ 80%) | B (80%< substrate protein remaining %≤ 100%) | B (80%< substrate protein remaining %≤ 100%) | B (80%< substrate protein remaining %≤ 100%) | B (80%< substrate protein remaining %≤ 100%)
O=C1CCN(N2Cc3cc(CN4CCC(c5ccco5)CC4)ccc3C2=O)C(=O)N1 [GT-07374, 1-(5-((4-(furan-2-yl)piperidin-1-yl)methyl)-1-oxoisoindolin-2-yl)dihydropyrimidine-2,4(1H,3H)-dione] | B (80%< substrate protein remaining %≤ 100%) | A (0% ≤ substrate protein remaining % ≤ 80%) | B (80%< substrate protein remaining %≤ 100%) | B (80%< substrate protein remaining %≤ 100%) | B (80%< substrate protein remaining %≤ 100%) | A (0% ≤ substrate protein remaining % ≤ 80%)
O=C1CCN(N2Cc3cc(CN4CCC(c5ccoc5)CC4)ccc3C2=O)C(=O)N1 [GT-07375, 1-(5-((4-(furan-3-yl)piperidin-1-yl)methyl)-1-oxoisoindolin-2-yl)dihydropyrimidine-2,4(1H,3H)-dione] | B (80%< substrate protein remaining %≤ 100%) | A (0% ≤ substrate protein remaining % ≤ 80%) | B (80%< substrate protein remaining %≤ 100%) | B (80%< substrate protein remaining %≤ 100%) | B (80%< substrate protein remaining %≤ 100%) | A (0% ≤ substrate protein remaining % ≤ 80%)
O=C1CCN(N2Cc3cc(CN4C5CC4CN(C(=O)C4=C(c6ccc(F)cc6)CCCC4)C5)ccc3C2=O)C(=O)N1 [GT-07376, 1-(5-((3-(4'-fluoro-3,4,5,6-tetrahydro-[1,1'-biphenyl]-2-carbonyl)-3,6-diazabicyclo[3.1.1]heptan-6-yl)methyl)-1-oxoisoindolin-2-yl)dihydropyrimidine-2,4(1H,3H)-dione] | B (80%< substrate protein remaining %≤ 100%) | B (80%< substrate protein remaining %≤ 100%) | B (80%< substrate protein remaining %≤ 100%) | B (80%< substrate protein remaining %≤ 100%) | A (0% ≤ substrate protein remaining % ≤ 80%) | B (80%< substrate protein remaining %≤ 100%)
O=C1CCN(N2C(=O)c3ccc(CN4C5CC4CN(C(=O)C4=C(c6ccc(F)cc6)CCCC4)C5)cc3C2=O)C(=O)N1 [GT-07377, 2-(2,4-dioxotetrahydropyrimidin-1(2H)-yl)-5-((3-(4'-fluoro-3,4,5,6-tetrahydro-[1,1'-biphenyl]-2-carbonyl)-3,6-diazabicyclo[3.1.1]heptan-6-yl)methyl)isoindoline-1,3-dione] | B (80%< substrate protein remaining %≤ 100%) | A (0% ≤ substrate protein remaining % ≤ 80%) | A (0% ≤ substrate protein remaining % ≤ 80%) | B (80%< substrate protein remaining %≤ 100%) | A (0% ≤ substrate protein remaining % ≤ 80%) | A (0% ≤ substrate protein remaining % ≤ 80%)
O=C1CCN(N2C(=O)c3ccc(CN4CCC(c5ccsc5)CC4)cc3C2=O)C(=O)N1 [GT-07420, 2-(2,4-dioxotetrahydropyrimidin-1(2H)-yl)-5-((4-(thiophen-3-yl)piperidin-1-yl)methyl)isoindoline-1,3-dione] | B (80%< substrate protein remaining %≤ 100%) | A (0% ≤ substrate protein remaining % ≤ 80%) | B (80%< substrate protein remaining %≤ 100%) | B (80%< substrate protein remaining %≤ 100%) | B (80%< substrate protein remaining %≤ 100%) | A (0% ≤ substrate protein remaining % ≤ 80%)
Cc1cc(C2CCN(Cc3ccc4c(c3)C(=O)N(N3CCC(=O)NC3=O)C4=O)CC2)cs1 [GT-07421, 2-(2,4-dioxotetrahydropyrimidin-1(2H)-yl)-5-((4-(5-methylthiophen-3-yl)piperidin-1-yl)methyl)isoindoline-1,3-dione] | B (80%< substrate protein remaining %≤ 100%) | A (0% ≤ substrate protein remaining % ≤ 80%) | B (80%< substrate protein remaining %≤ 100%) | B (80%< substrate protein remaining %≤ 100%) | B (80%< substrate protein remaining %≤ 100%) | A (0% ≤ substrate protein remaining % ≤ 80%)
O=C1CCN(N2C(=O)c3ccc(CN4CCC(c5ccoc5)CC4)cc3C2=O)C(=O)N1 [GT-07422, 2-(2,4-dioxotetrahydropyrimidin-1(2H)-yl)-5-((4-(furan-3-yl)piperidin-1-yl)methyl)isoindoline-1,3-dione] | B (80%< substrate protein remaining %≤ 100%) | A (0% ≤ substrate protein remaining % ≤ 80%) | B (80%< substrate protein remaining %≤ 100%) | B (80%< substrate protein remaining %≤ 100%) | B (80%< substrate protein remaining %≤ 100%) | A (0% ≤ substrate protein remaining % ≤ 80%)
